According to patent US20240299438A1, “METHOD FOR DIAGNOSIS AND TREATMENT OF AUTISM SPECTRUM DISORDER ON BASIS OF ACTIVITY REGULATION MECHANISM OF DORMANT NEURAL STEM CELL” (DONGGUK UNIVERSITY INDUSTRY-ACADEMIC COOPERATION FOUNDATION, priority 2021, published 2024):

Assays:
[1] = tested on: quiescent neural stem cells in SVZ and DG of Shank3-deficient mice; assay: Immunostaining quantification of qNSCs, BrdU+ NSCs and DCX+ cells after drug injection; assay type: in vivo, mouse; details: for number of GFAP+,Sox2+,Dlx2− qNSCs / number of GFAP+,Sox2+,Id2+ qNSCs: 2 weeks after administration, OICR-9429 3 mg/kg, romidepsin 0.25 mg/kg, clozapine 5 mg/kg, once/day, 3 days
Experimental: (§1) FIG. 5 (A) Immunostaining results of quiescent neural stem cells in the SVZ of control and Shank3 KO mice injected with saline, OICR-9429 (3 mg/kg, once/day, 3 days), romidepsin (0.25 mg/kg, once/day, 3 days), and clozapine (5 mg/kg, once/day, 3 days). The yellow arrows indicate GFAP+Sox2+Dlx2− qNSCs. Scale bar=20 μm. (B) Immunostaining results of quiescent neural stem cells in the DG of control and Shank3 KO mice injected with saline, OICR-9429 (3 mg/kg, once/day, 3 days), romidepsin (0.25 mg/kg, once/day, 3 days), and clozapine (5 mg/kg, once/day, 3 days). The yellow arrows indicate GFAP+Sox2+NeuN− qNSCs. Scale bar=20 μm. (C-E) Quantification results of FAP+Sox2+Id2+ (C) and GFAP+Sox2+Dlx2− (D) qNSCs in the SVZ and GFAP+Sox2+NeuN− (E) qNSCs in the DG. (F) Quantification results of BrdU+ NSCs in the SVZ injected with saline, OICR-9429, romidepsin, and clozapine. Control and Shank3 KO mice injected with each drug were injected intraperitoneally with a daily dose of BrdU (100 mg/kg/day). (G) Quantification results of DCX+ NPCs in the DG of control and Shank3 KO mice injected with each drug. (H) Immunofluorescence analysis of GFAP+,Sox2+,BrdU+ aNSCs in the SVZ of control and Shank3 KO mice injected with each drug. Scale bar=100 μm. (I) Quantification results of BrdU+ cells in the SVZ of saline- or OICR-9429-treated control and Shank3 mice at different time points after TMZ injection. (J) Analysis of protein expression levels of synaptic proteins and glutamate receptor subunits from control or Shank3 KO mice injected with saline or OICR-9429. (K) Results of representative heat maps showing the time spent in 3 chambers to assess the social interactions of control and Shank3 KO mice treated with saline, OICR-9429, romidepsin, clozapine, and VPA. (L-O) Social preference index percentages (Soc vs. NS ratio) in Shank3 KO mice injected with OICR-9429 (L), romidepsin (M), clozapine (N), and VPA (O) for 28 days.
To provide a drug-based therapeutic strategy for autism, Shank3-deficient mice were treated with OICR-9429, which is an antagonist inhibiting H3K4 trimethylation by KMT2A, and the effect was investigated. […] Similarly, OICR-9429 injection reduced the number of GFAP+,Sox2+,NeuN− qNSCs during hippocampal neurogenesis in Shank3-deficient mice (FIGS. 5B and 5E). […] Finally, as a result of treatment with OICR-9429, the number of DCX-positive neuroblasts increased in the brains of Shank3-deficient mice (FIG. 5G).

[2] = tested on: HOMER1, SAPAP3, GluR1, NR2A; assay: Western blot of synaptic proteins and glutamate receptor subunits in SHANK3-deficient human cultures; assay type: cell-based
[3] = tested on: SHANK3-deficient human radial glia cells; assay: Immunofluorescence of SHANK3-deficient human iPSC-derived neural stem (radial glia) cells; assay type: cell-based; details: five days after treatment
Source text: FIG. 6 (A) Immunostaining results of GFAP+,SOX2+,ID2+ and GFAP+,SOX2+,NESTIN+ quiescent neural stem cells (radical glia cell, RGCs) from control or SHANK3-deficient iPSCs. White arrows indicate human RGCs. Scale bar=20 μm. (B) Quantification results of GFAP+,SOX2+,I D2+ RGCs with radial morphology. (C) Quantification results of GFAP+,SOX2+,NESTIN+ RGCs with radial morphology. (D) Immunostaining of GFAP+,SOX2+,EGFR+ aNSC and K167+ proliferating cells. Scale bar=20 μm. (E) Quantification results of GFAP+,SOX2+,EGFR+ aNSCs from control or SHANK3-deficient RGCs. (F) Quantification results of K167+ proliferating cells from control or SHANK3-deficient RGCs. (G) Immunofluorescence analysis of GFAP+,SOX2+,NESTIN+ RGCs from control or SHANK3-deficient NSCs treated with KMT2A-shRNA. The white arrow indicates cells with radial morphology. Scale bar=20 μm. (H) Quantification results of the number of GFAP+,SOX2+,NESTIN+ RGCs with radial morphology and GFAP+,SOX2+,NESTIN+ RGCs with nonradial morphology treated with KMT2A-shRNA. […]
The molecular mechanisms underlying the autism phenotypes associated with SHANK3 deficiency in human iPSC-derived neural differentiation were investigated. […] Additionally, it was analyzed whether or not SHANK3-deficient human radial glia cells are pharmacologically treated by OICR-9429.

[4] = tested on: Shank3-deficient mice; assay: Social interaction behavioral test (3 chambers) after drug injection; assay type: in vivo, mouse; details: for time participating in social stimuli: 3-chamber test; for social preference index (persistence of effect): followed for 28 days after injection
Experimental: as §1
In addition, to investigate the therapeutic effect of OICR-9429, a social interaction behavioral test was performed on Shank3-deficient mice injected with various neuropsychiatric drugs.

[5] = tested on: qNSC activity in SVZ of Shank3-deficient mice; assay: Recovery of BrdU-positive cells after temozolomide (TMZ) injection; assay type: in vivo, mouse; details: after 7 days of TMZ injection, relative to control mice
Experimental: as §1, with “(J) Analysis of protein expression levels of synaptic proteins and glutamate receptor subunits from control or Shank3 KO mice injected with saline or OICR-9429. (K) Results of representative heat maps showing the time spent in 3 chambers to assess the social interactions of control and Shank3 KO mice treated with saline, OICR-9429, romidepsin, clozapine, and VPA. (L-O) Social preference index percentages (Soc vs. NS ratio) in Shank3 KO mice injected with OICR-9429 (L), romidepsin (M), clozapine (N), and VPA (O) for 28 days.” left out

[6] = tested on: Homer1, SAPAP3, GluR1, GluR2, NR2A, NR2B; assay: Protein expression levels of synaptic proteins and glutamate receptor subunits in mice; assay type: in vivo, mouse; details: Shank3-deficient mice
Experimental: as §1, with “(J) Analysis of protein expression levels of synaptic proteins and glutamate receptor subunits from control or Shank3 KO mice injected with saline or OICR-9429. (K) Results of representative heat maps showing the time spent in 3 chambers to assess the social interactions of control and Shank3 KO mice treated with saline, OICR-9429, romidepsin, clozapine, and VPA. (L-O) Social preference index percentages (Soc vs. NS ratio) in Shank3 KO mice injected with OICR-9429 (L), romidepsin (M), clozapine (N), and VPA (O) for 28 days.” left out

SMILES	number of rapidly dividing cells labeled with BrdU ([1]; SVZ, Shank3-deficient mice)	number of GFAP+,Sox2+,Dlx2− qNSCs ([1]; SVZ, Shank3-deficient mice)	number of GFAP+,Sox2+,Id2+ qNSCs ([1]; SVZ, Shank3-deficient mice)	number of DCX-positive neuroblasts ([1]; brains (DG) of Shank3-deficient mice)	number of GFAP+,Sox2+,NeuN− qNSCs ([1]; hippocampal neurogenesis (DG), Shank3-deficient mice)	expression levels of synaptic proteins HOMER1 and SAPAP3 and glutamate receptor subunits GluR1 and NR2A [2]	proportion of GFAP+,SOX2+,NESTIN+ radial glia cells with non-radial morphology ([3]; SHANK3-deficient neural stem cells)	proportion of GFAP+,SOX2+,NESTIN+ radial glia cells with radial morphology ([3]; SHANK3-deficient radial glia cells)	time participating in social stimuli [4]	social preference index (persistence of effect) [4]	BrdU-positive cells after TMZ injection [5]	expression of synaptic proteins Homer1 and SAPAP3 and glutamate receptor subunits GluR1, GluR2, NR2A, and NR2B [6]
CN1CCN(c2ccc(-c3cccc(CN4CCOCC4)c3)cc2NC(=O)c2c[nH]c(=O)cc2C(F)(F)F)CC1 [OICR-9429]	greatly increased	significantly decreased	significantly decreased	increased	reduced	greatly increased	significant decrease	decreased	significantly more time	gradually improved up to 3 weeks after injection	significantly recovered	significantly restored
CCCC(CCC)C(=O)O [VPA]									no significant effect	did not improve		
C/C=C1\NC(=O)[C@H]2CSSCC/C=C/[C@H](CC(=O)N[C@H](C(C)C)C(=O)N2)OC(=O)[C@H](C(C)C)NC1=O [romidepsin]		no effect	no effect						no significant effect			
CN1CCN(C2=Nc3cc(Cl)ccc3Nc3ccccc32)CC1 [clozapine]		no effect	no effect						no significant effect			
